Laboratory results: publication PMC10726475, “Atypical N-Alkyl to N-Noralkoxy Switch in a Dual cSRC/BCR-ABL1 Kinase Inhibitor Improves Drug Efflux and hERG Affinity” (ACS Medicinal Chemistry Letters, 2023)
Read-outs that look alike come from different tables or passages of the source.

Columns and labels:
Molt-4 cells = assay: Cell viability assay (CellTiter-Glo), Molt-4; assay type: cell-based, human; settings: read-out: IC50 (72 h), Molt-4 Cell Line; 72 h, BCR-ABL1 negative
SUP-B15 cells = assay: Cell viability assay (CellTiter-Glo), SUP-B15; assay type: cell-based, human; settings: read-out: IC50 (72 h), SUP-B15 Cell Line, mean ± SEM, n = 3, unadjusted for FBS
KU812 cells = assay: Cell viability assay (CellTiter-Glo), KU812; assay type: cell-based, human; settings: read-out: IC50 (72 h), KU812 Cell Line, mean ± SEM, n = 3, unadjusted for FBS
MEG-01 cells = assay: Cell viability assay (CellTiter-Glo), MEG-01; assay type: cell-based, human; settings: read-out: IC50 (72 h), MEG-01 Cell Line, mean ± SEM, n = 3, unadjusted for FBS
Caco-2 cells = assay: Caco-2 cell permeability
in vitro = settings: human, Caco-2
MDCKII-MDR1 cells = assay: MDCKII-MDR1 cell permeability
Excerpt: (§1) Abbreviations: Papp, apparent permeability; AP, apical; BL, basolateral.

P-gp (MDR1) = assay: in vitro; settings: dog, MDCK-MDR1
Excerpt: as §1

[1] = Plasma protein binding by equilibrium dialysis, human; assay type: in vitro ADME
Excerpt: (§2) Human plasma (mixed gender) Ltd-People’s Hospital of Shandong Weifang Hi-
(§3) Tech Industrial Development Zone (Batch No. P-
(§4) Rat plasma (SD/mixed gender) BiolVT (Batch No. RAT501985)
(§5) Mouse plasma (CD-1/mixed gender) IPHASE or BiolVT (Batch No. MSE427337)

[2] = Plasma protein binding by equilibrium dialysis, mouse; assay type: in vitro ADME
Excerpt: as §2, §3, §4, §5

[3] = Plasma protein binding by equilibrium dialysis, rat; assay type: in vitro ADME
Excerpt: as §2, §3, §4, §5

CN(N=O)C(=O)N[C@H]1C(O)O[C@H](CO)[C@@H](O)[C@@H]1O (mixture of isomers) [Streptozotocin]
Count (# of wells) (Salmonella strain TA98; TA98+S9, 2.5E-06 M): 6 | Positive Significance (- to +++) (Salmonella strain TA98; TA98+S9, 2.5E-06 M): + (weak positive, if P < 0.05) | Count (# of wells) (Salmonella strain TA98; TA98-S9, 2.5E-06 M): 1 | Positive Significance (- to +++) (Salmonella strain TA98; TA98-S9, 2.5E-06 M): - | Count (# of wells) (Salmonella strain TA100; TA100+S9, 2.5E-06 M): 19 | Count (# of wells) (Salmonella strain TA100; TA100-S9, 2.5E-06 M): 39 | Count (# of wells) (Salmonella strain TA1535; TA1535+S9, 2.5E-06 M): 48 | Count (# of wells) (Salmonella strain TA1535; TA1535-S9, 2.5E-06 M): 46 | Count (# of wells) (Salmonella strain TA1537; TA1537+S9, 2.5E-06 M): 0 | Positive Significance (- to +++) (Salmonella strain TA1537; TA1537+S9, 2.5E-06 M): - | Count (# of wells) (Salmonella strain TA1537; TA1537-S9, 2.5E-06 M): 1 | Positive Significance (- to +++) (Salmonella strain TA1537; TA1537-S9, 2.5E-06 M): -

Nc1ccc2cc3ccccc3cc2c1 [2-Aminoanthracene]
Count (# of wells) (Salmonella strain TA98; TA98+S9, 2.0E-06 M): 48 | Count (# of wells) (Salmonella strain TA98; TA98-S9, 1.0E-06 M): 1 | Positive Significance (- to +++) (Salmonella strain TA98; TA98-S9, 1.0E-06 M): - | Count (# of wells) (Salmonella strain TA100; TA100+S9, 1.0E-06 M): 17 | Positive Significance (- to +++) (Salmonella strain TA100; TA100+S9, 1.0E-06 M): ++ (strong positive, if P < 0.01) | Count (# of wells) (Salmonella strain TA100; TA100-S9, 1.0E-06 M): 2 | Positive Significance (- to +++) (Salmonella strain TA100; TA100-S9, 1.0E-06 M): - | Count (# of wells) (Salmonella strain TA1535; TA1535+S9, 1.0E-06 M): 12 | Count (# of wells) (Salmonella strain TA1535; TA1535-S9, 1.0E-06 M): 0 | Positive Significance (- to +++) (Salmonella strain TA1535; TA1535-S9, 1.0E-06 M): - | Count (# of wells) (Salmonella strain TA1537; TA1537+S9, 2.0E-06 M): 11 | Positive Significance (- to +++) (Salmonella strain TA1537; TA1537+S9, 2.0E-06 M): ++ (strong positive, if P < 0.01) | Count (# of wells) (Salmonella strain TA1537; TA1537-S9, 1.0E-06 M): 0 | Positive Significance (- to +++) (Salmonella strain TA1537; TA1537-S9, 1.0E-06 M): -

O=[N+]([O-])c1ccc2c(c1)Cc1ccccc1-2 [2-Nitrofluorene]
Count (# of wells) (Salmonella strain TA98; TA98+S9, 3.0E-05 M): 28 | Count (# of wells) (Salmonella strain TA98; TA98-S9, 3.0E-05 M): 30 | Count (# of wells) (Salmonella strain TA100; TA100+S9, 3.0E-05 M): 0 | Positive Significance (- to +++) (Salmonella strain TA100; TA100+S9, 3.0E-05 M): - | Count (# of wells) (Salmonella strain TA100; TA100-S9, 3.0E-05 M): 2 | Positive Significance (- to +++) (Salmonella strain TA100; TA100-S9, 3.0E-05 M): - | Count (# of wells) (Salmonella strain TA1535; TA1535+S9, 3.0E-05 M): 0 | Positive Significance (- to +++) (Salmonella strain TA1535; TA1535+S9, 3.0E-05 M): - | Count (# of wells) (Salmonella strain TA1535; TA1535-S9, 3.0E-05 M): 0 | Positive Significance (- to +++) (Salmonella strain TA1535; TA1535-S9, 3.0E-05 M): - | Count (# of wells) (Salmonella strain TA1537; TA1537+S9, 3.0E-05 M): 2 | Positive Significance (- to +++) (Salmonella strain TA1537; TA1537+S9, 3.0E-05 M): - | Count (# of wells) (Salmonella strain TA1537; TA1537-S9, 3.0E-05 M): 6 | Positive Significance (- to +++) (Salmonella strain TA1537; TA1537-S9, 3.0E-05 M): + (weak positive, if P < 0.05)

Nc1c2ccccc2nc2ccccc12 [9-Aminoacridine]
Count (# of wells) (Salmonella strain TA98; TA98+S9, 1.0E-05 M): 1 | Positive Significance (- to +++) (Salmonella strain TA98; TA98+S9, 1.0E-05 M): - | Count (# of wells) (Salmonella strain TA98; TA98-S9, 1.0E-05 M): 2 | Positive Significance (- to +++) (Salmonella strain TA98; TA98-S9, 1.0E-05 M): - | Count (# of wells) (Salmonella strain TA100; TA100+S9, 1.0E-05 M): 2 | Positive Significance (- to +++) (Salmonella strain TA100; TA100+S9, 1.0E-05 M): - | Count (# of wells) (Salmonella strain TA100; TA100-S9, 1.0E-05 M): 0 | Positive Significance (- to +++) (Salmonella strain TA100; TA100-S9, 1.0E-05 M): - | Count (# of wells) (Salmonella strain TA1535; TA1535+S9, 1.0E-05 M): 1 | Positive Significance (- to +++) (Salmonella strain TA1535; TA1535+S9, 1.0E-05 M): - | Count (# of wells) (Salmonella strain TA1535; TA1535-S9, 1.0E-05 M): 0 | Positive Significance (- to +++) (Salmonella strain TA1535; TA1535-S9, 1.0E-05 M): - | Count (# of wells) (Salmonella strain TA1537; TA1537+S9, 1.0E-05 M): 31 | Count (# of wells) (Salmonella strain TA1537; TA1537-S9, 1.0E-05 M): 25

N.N.[Cl][Pt][Cl] [Cisplatin, cisplatin]
IC50 (Molt-4 cells): 1340 ± 89 nM | IC50 (SUP-B15 cells): 987 ± 36 nM | IC50 (KU812 cells): 1500 ± 103 nM | IC50 (MEG-01 cells): 5100 ± 318 nM

C[C@H]1O[C@@H](O[C@H]2[C@@H](O)C[C@H](O[C@H]3[C@@H](O)C[C@H](O[C@H]4CC[C@@]5(C)[C@H](CC[C@@H]6[C@@H]5C[C@@H](O)[C@]5(C)[C@@H](C7=CC(=O)OC7)CC[C@]65O)C4)O[C@@H]3C)O[C@@H]2C)C[C@H](O)[C@@H]1O [Digoxin]
Recovery% (BL-AP) (Caco-2 cells): 101.40% | Papp A→B at 2 h, 5 μM (in vitro): 0.34 ×10⁻⁶ cm/s | Papp B→A at 2 h, 5 μM (in vitro): 15.6 ×10⁻⁶ cm/s | efflux ratio at 2 h, 5 μM (in vitro): 45.6 | recovery (in vitro): 103% | Recovery% (BL-AP) (MDCKII-MDR1 cells): 92.45% | Papp A→B at 2 h, 1 μM (P-gp (MDR1)): 0.26 ×10⁻⁶ cm/s | Papp B→A at 2 h, 1 μM (P-gp (MDR1)): 10.2 ×10⁻⁶ cm/s | efflux ratio at 2 h, 1 μM (P-gp (MDR1)): 38.6 | recovery (P-gp (MDR1)): 96.3%

CC(=O)N1CCN(c2ccc(OCC3COC(Cn4ccnc4)(c4ccc(Cl)cc4Cl)O3)cc2)CC1 (stereo not shown) [Ketoconazole]
fu, plasma % / %Unbound ([1]; 5 μM, equilibrium dialysis): 0.82% | recovery ([1]; both sexes): 98.6% | remaining at 6 h, 5 μM ([1]; both sexes): 102% | fraction unbound at 5 μM ([1]; both sexes, read-out: %Bound (converted)): 0.0082 | %Bound [2]: 99.42% | recovery ([2]; both sexes, CD-1): 96.8% | remaining at 6 h, 5 μM ([2]; both sexes, CD-1): 96.3% | fraction unbound at 5 μM ([2]; both sexes, CD-1, 5 μM, equilibrium dialysis, read-out: fu, plasma % / %Unbound): 0.0058 | fu, plasma % / %Unbound ([3]; 5 μM, equilibrium dialysis): 0.67% | recovery ([3]; both sexes, SD): 103% | fraction unbound at 5 μM ([3]; both sexes, SD, read-out: fu, plasma % / %Unbound (converted)): 0.0067
